The values below come from patent publication US8679514B2, “Fungicidal mixtures based on azolopyrimidinylamines” (BASF SE, priority 2005, dated 2014).

What all share (format): cell-based
The test system of one test is Phytophthora infestans. In words: microbe, parasite or virus in culture.
For another test, the system named is Pyricularia oryzae. In words: microbe, parasite or virus in culture.
In a further test the test system is Botrytis cinerea. In words: Activity against the gray mold pathogen Botrytis cinerea in the microtiter test. Conditions: single active compound; for inhibition at […]: Conc. 0.063 mg/l; for inhibition at 1 µg/mL: Conc. 1 mg/l; for inhibition at 0.25 µg/mL: Conc. 0.25 mg/l.
The mark [1] stands for this setting: Phytophthora infestans, read-out: Observed activity (%).
Where [2] appears, read: Pyricularia oryzae, read-out: Observed activity (%).
Where [3] appears, read: Botrytis cinerea, read-out: Observed activity (%).

`Cc1cccc(C)c1N(C(=O)CCl)C1CCOC1=O` (centres unmarked) [ofurace]: in the test with Phytophthora infestans (setting [1]), the inhibition at 4 µg/mL amounted to 0% and the inhibition at 16 µg/mL was 19%. `O=S(=O)([O-])[O-].[Cu+2]` [CuSO4, reference compound]: the “Observed activity (%)” value in the test with Pyricularia oryzae and with Botrytis cinerea (Conc. 63 mg/l) was 0% throughout. On to `CCCC1COC(Cn2cncn2)(c2ccc(Cl)cc2Cl)O1` (centres unmarked) [propiconazole], for which, in the test with Phytophthora infestans (setting [1]), the inhibition at 1 µg/mL worked out at 1%, the inhibition at 4 µg/mL was determined as 11% and the inhibition at 16 µg/mL stood at 12%. As to `CSC1=N[C@@](C)(c2ccccc2)C(=O)N1Nc1ccccc1` [fenamidone], in the test on Phytophthora infestans (setting [1]), the inhibition at […] worked out at 40%.

For maneb, the entries for the “Observed activity (%)” value with Pyricularia oryzae and with Phytophthora infestans were 32% and 6%, respectively. Regarding `O=c1c2cc(F)ccc2nc(-n2cncn2)n1-c1ccc(Cl)cc1Cl` [fluquinconazole, 3-(2,4-dichlorophenyl)-6-fluoro-2-[1,2,4]-triazol-1-yl-3H-quinazolin-4-one, reference compound], the inhibition at 4 µg/mL in the test on Pyricularia oryzae (setting [2]) and with Phytophthora infestans (setting [1]) was 0% in each case. In addition, the inhibition at 1 µg/mL in the test on Phytophthora infestans (setting [1]) was 0%. Besides, the inhibition at […] in the test with Botrytis cinerea (setting [3]) was 22%. In the case of `C=CC1(C)OC(=O)N(c2cc(Cl)cc(Cl)c2)C1=O` (centres unmarked) [vinclozolin], in the test on Phytophthora infestans (setting [1]), the inhibition at 16 µg/mL was found to be 0%. The inhibition at 1 µg/mL in the test with Botrytis cinerea (setting [3]) was 21%. As for `N#Cc1c(Cl)c(Cl)c(Cl)c(C#N)c1Cl` [chlorothalonil], in the test on Botrytis cinerea (setting [3]), the inhibition at 1 µg/mL came out at 55%. Regarding `CC(C)OC(=O)N[C@H](C(=O)N[C@H](C)c1nc2ccc(F)cc2s1)C(C)C` [flubenthiavalicarb], in the test with Phytophthora infestans, the “Observed activity (%)” value is given as 68%. For the compound `CON=C(C(=O)OC)c1ccccc1CON=C(C)c1cccc(C(F)(F)F)c1` [trifloxystrobin], in the test with Phytophthora infestans (setting [1]), the inhibition at 0.25 µg/mL worked out at 33% and the inhibition at 1 µg/mL was 46%. Regarding `COc1cc(C)c(C(=O)c2c(OC)ccc(Br)c2C)c(OC)c1OC` [metrafenone, 3′-bromo-2,3,4,6′-tetramethoxy-2′,6-dimethylbenzophenone, reference compound], the inhibition at 63 µg/mL in the test with Pyricularia oryzae (setting [2]) turned out to be 42%. The inhibition at 4 µg/mL in the test on Phytophthora infestans (setting [1]) was determined as 2%. In the case of `CO/C=C(/C(=O)OC)c1ccccc1Oc1cc(Oc2ccccc2C#N)ncn1` [azoxystrobin], the “Observed activity (%)” value in the test on Phytophthora infestans turned out to be 21%. For the compound “zinc ammoniate ethylenebis(dithiocarbamate) [metiram, reference compound]”, the “Observed activity (%)” value in the test with Pyricularia oryzae came out at 26%. For `COCC(=O)N(c1c(C)cccc1C)N1CCOC1=O` [oxadixyl], in the test on Phytophthora infestans (setting [1]), the inhibition at 1 µg/mL was 0%, the inhibition at 4 µg/mL came to 2% and the inhibition at 16 µg/mL worked out at 17%. For `Cc1nc2ncnn2c(N)c1-c1ccc(Cl)c(Cl)c1` [Compound I-9, 6-(3,4-dichlorophenyl)-5-methyl-[1,2,4]triazolo[1,5-a]pyrimidin-7-ylamine], in the test on Pyricularia oryzae (setting [2]), the inhibition at 0.25 µg/mL was 7% and the inhibition at 1 µg/mL was found to be 13%. Besides, in the test with Phytophthora infestans (setting [1]), the inhibition at 0.016 µg/mL is 1%, the inhibition at 0.25 µg/mL was determined as 7% and the inhibition at […] was found to be 6%. The inhibition at 0.25 µg/mL in the test on Botrytis cinerea (setting [3]) is 8%. `COC(=O)N(OC)c1ccccc1COc1ccn(-c2ccc(Cl)cc2)n1` [pyraclostrobin]: in the test on Phytophthora infestans (setting [1]), the inhibition at 0.016 µg/mL was determined as 14% and the inhibition at […] turned out to be 59%. As for `CO/N=C(/C1=NOCCO1)c1ccccc1Oc1ncnc(Oc2ccccc2Cl)c1F` [fluoxastrobin], in the test on Phytophthora infestans (setting [1]), the inhibition at 0.025 µg/mL was found to be 2% and the inhibition at […] worked out at 1%. With `CC(C)(C)C(O)(CCc1ccc(Cl)cc1)Cn1cncn1` (centres unmarked) [tebuconazole], in the test with Phytophthora infestans (setting [1]), the inhibition at 1 µg/mL stood at 8%, the inhibition at 4 µg/mL worked out at 10% and the inhibition at 16 µg/mL worked out at 9%. In addition, the inhibition at 0.25 µg/mL with Botrytis cinerea (setting [3]) came out at 50%. Consider `C[Si](Cn1cncn1)(c1ccc(F)cc1)c1ccc(F)cc1` [flusilazole], for which, in the test on Phytophthora infestans (setting [1]), the inhibition at 1 µg/mL is 0% and the inhibition at 4 µg/mL is 11%. Further, the inhibition at 0.25 µg/mL in the test with Botrytis cinerea (setting [3]) was found to be 43%. `O=C(Nc1ccccc1-c1ccc(Cl)cc1)c1cccnc1Cl` [boscalid]: the inhibition at 63 µg/mL in the test on Pyricularia oryzae (setting [2]) is 12%. In addition, in the test with Phytophthora infestans (setting [1]), the inhibition at 1 µg/mL came out at 2% and the inhibition at 4 µg/mL is 17%. `O=C1C2CC=CCC2C(=O)N1SC(Cl)(Cl)Cl` (centres unmarked) [captan, 2-trichloromethylsulfanyl-3a,4,7,7a-tetrahydroisoindole-1,3-dione, reference compound]: the inhibition at 1 µg/mL with Pyricularia oryzae (setting [2]) was 44%; in the test on Phytophthora infestans (setting [1]) it was 12%. Take `CC(C)NC(=O)N1CC(=O)N(c2cc(Cl)cc(Cl)c2)C1=O` [iprodione, N-isopropyl-3-(3,5-dichlorophenyl)-2,4-dioxoimidazolidine-1-carboxamide, reference compound]: the inhibition at 4 µg/mL in the test on Pyricularia oryzae (setting [2]) stood at 46%. With `CC1CCN(c2c(-c3c(F)cc(F)cc3F)c(Cl)nc3ncnn23)CC1` [[D-8], 5-chloro-7-(4-methylpiperidin-1-yl)-6-(2,4,6-trifluorophenyl)-[1,2,4]triazolo[1,5-a]pyrimidine, reference compound], in the test with Phytophthora infestans (setting [1]), the inhibition at 1 µg/mL was 43%.

For `COC(=O)Nc1nc2ccccc2[nH]1` [carbendazim], the inhibition at 0.25 µg/mL in the test on Pyricularia oryzae (setting [2]) was determined as 20%. For the compound `Cc1cc(C2CC2)nc(Nc2ccccc2)n1` [cyprodinil], in the test on Phytophthora infestans (setting [1]), the inhibition at 4 µg/mL is 10%. With `COC(=O)C(C)N(C(=O)Cc1ccccc1)c1c(C)cccc1C` (centres unmarked) [benalaxyl], the inhibition at 4 µg/mL in the test with Phytophthora infestans (setting [1]) amounted to 13%.

Consider `CC(C1CC1)C(O)(Cn1cncn1)c1ccc(Cl)cc1` (centres unmarked) [cyproconazole], for which the inhibition at 4 µg/mL in the test with Pyricularia oryzae (setting [2]) amounted to 54%; in the test on Phytophthora infestans (setting [1]) it was 9%. As to `O=[N+]([O-])c1cc(C(F)(F)F)c(Cl)c([N+](=O)[O-])c1Nc1ncc(C(F)(F)F)cc1Cl` [fluazinam], the inhibition at 0.25 µg/mL in the test on Phytophthora infestans (setting [1]) was found to be 9%. For the same compound, the inhibition at […] in the test on Botrytis cinerea (setting [3]) turned out to be 50%. For the compound `CCCCCCCCc1nc2ncnn2c(N)c1CC` [Compound I-290, 6-ethyl-5-octyl-[1,2,4]triazolo[1,5-a]pyrimidin-7-ylamine], in the test with Phytophthora infestans (setting [1]), the inhibition at 0.25 µg/mL worked out at 0%, the inhibition at 4 µg/mL worked out at 3% and the inhibition at […] is 0%. In the test with Botrytis cinerea (setting [3]), the inhibition at 1 µg/mL is 4%. Turning to `CCCN(CCOc1c(Cl)cc(Cl)cc1Cl)C(=O)n1ccnc1` [prochloraz], in the test with Phytophthora infestans (setting [1]), the inhibition at 16 µg/mL turned out to be 6%.

In the case of `CC1COC(Cn2cncn2)(c2ccc(Oc3ccc(Cl)cc3)cc2Cl)O1` (centres unmarked) [difenoconazole], the inhibition at 4 µg/mL with Phytophthora infestans (setting [1]) came out at 24%. As for `CO/C=C(/C(=O)OC)c1ccccc1CO/N=C(C)/C=C/c1ccc(Cl)cc1` [enestroburin], the “Observed activity (%)” value in the test with Phytophthora infestans is 35%. Consider `COC(=O)NC(=S)Nc1ccccc1NC(=S)NC(=O)OC` [thiophanate-methyl], for which, in the test on Botrytis cinerea (setting [3]), the inhibition at 0.25 µg/mL was found to be 12%. Consider `O=C1c2ccccc2C(=O)N1SC(Cl)(Cl)Cl` [folpet], for which the inhibition at 1 µg/mL with Phytophthora infestans (setting [1]) stood at 6%; in the test with Botrytis cinerea (setting [3]) it was 2%. For the compound `CC1CN(C2CCCCCCCCCCC2)CC(C)O1` (centres unmarked) [dodemorph], the inhibition at 16 µg/mL in the test on Pyricularia oryzae (setting [2]) was determined as 72%. Consider `OC(Cc1ccccc1Cl)(Cn1nc[nH]c1=S)C1(Cl)CC1` (centres unmarked) [prothioconazole, 2-[2-(1-chlorocyclopropyl)-3-(2-chlorophenyl)-2-hydroxypropyl]-2,4-dihydro-[1,2,4]triazole-3-thione, reference compound], for which the inhibition at 4 µg/mL is 11% in the test with Pyricularia oryzae (setting [2]) and 48% in the test on Botrytis cinerea (Botrytis cinerea, Conc. 4 mg/l, read-out: Observed activity (%)).
